Reference: ChEMBL document CHEMBL4811281, “Identification of aryl sulfonamides as novel and potent inhibitors of NaV1.5” (Bioorg Med Chem Lett, 2021)

Legend:
Cytochrome P450 2C19 = Cytochrome P450 2C19 (Homo sapiens, UniProt P33261); assay: Inhibition of CYP2C19 (unknown origin); assay type: ADME
Cytochrome P450 1A2 = Cytochrome P450 1A2 (Homo sapiens, UniProt P05177); assay: Inhibition of CYP1A2 (unknown origin); assay type: ADME
[1] = biological target: T1, Sodium channel protein type 5 subunit alpha (Homo sapiens, UniProt Q14524); assay: Inhibition of human Nav1.5 expressed in HEK293 cells assessed as inhibition of late channel current at holding potential of -95 mV; assay type: cell-based
T1 sequence (Q14524 whole entry): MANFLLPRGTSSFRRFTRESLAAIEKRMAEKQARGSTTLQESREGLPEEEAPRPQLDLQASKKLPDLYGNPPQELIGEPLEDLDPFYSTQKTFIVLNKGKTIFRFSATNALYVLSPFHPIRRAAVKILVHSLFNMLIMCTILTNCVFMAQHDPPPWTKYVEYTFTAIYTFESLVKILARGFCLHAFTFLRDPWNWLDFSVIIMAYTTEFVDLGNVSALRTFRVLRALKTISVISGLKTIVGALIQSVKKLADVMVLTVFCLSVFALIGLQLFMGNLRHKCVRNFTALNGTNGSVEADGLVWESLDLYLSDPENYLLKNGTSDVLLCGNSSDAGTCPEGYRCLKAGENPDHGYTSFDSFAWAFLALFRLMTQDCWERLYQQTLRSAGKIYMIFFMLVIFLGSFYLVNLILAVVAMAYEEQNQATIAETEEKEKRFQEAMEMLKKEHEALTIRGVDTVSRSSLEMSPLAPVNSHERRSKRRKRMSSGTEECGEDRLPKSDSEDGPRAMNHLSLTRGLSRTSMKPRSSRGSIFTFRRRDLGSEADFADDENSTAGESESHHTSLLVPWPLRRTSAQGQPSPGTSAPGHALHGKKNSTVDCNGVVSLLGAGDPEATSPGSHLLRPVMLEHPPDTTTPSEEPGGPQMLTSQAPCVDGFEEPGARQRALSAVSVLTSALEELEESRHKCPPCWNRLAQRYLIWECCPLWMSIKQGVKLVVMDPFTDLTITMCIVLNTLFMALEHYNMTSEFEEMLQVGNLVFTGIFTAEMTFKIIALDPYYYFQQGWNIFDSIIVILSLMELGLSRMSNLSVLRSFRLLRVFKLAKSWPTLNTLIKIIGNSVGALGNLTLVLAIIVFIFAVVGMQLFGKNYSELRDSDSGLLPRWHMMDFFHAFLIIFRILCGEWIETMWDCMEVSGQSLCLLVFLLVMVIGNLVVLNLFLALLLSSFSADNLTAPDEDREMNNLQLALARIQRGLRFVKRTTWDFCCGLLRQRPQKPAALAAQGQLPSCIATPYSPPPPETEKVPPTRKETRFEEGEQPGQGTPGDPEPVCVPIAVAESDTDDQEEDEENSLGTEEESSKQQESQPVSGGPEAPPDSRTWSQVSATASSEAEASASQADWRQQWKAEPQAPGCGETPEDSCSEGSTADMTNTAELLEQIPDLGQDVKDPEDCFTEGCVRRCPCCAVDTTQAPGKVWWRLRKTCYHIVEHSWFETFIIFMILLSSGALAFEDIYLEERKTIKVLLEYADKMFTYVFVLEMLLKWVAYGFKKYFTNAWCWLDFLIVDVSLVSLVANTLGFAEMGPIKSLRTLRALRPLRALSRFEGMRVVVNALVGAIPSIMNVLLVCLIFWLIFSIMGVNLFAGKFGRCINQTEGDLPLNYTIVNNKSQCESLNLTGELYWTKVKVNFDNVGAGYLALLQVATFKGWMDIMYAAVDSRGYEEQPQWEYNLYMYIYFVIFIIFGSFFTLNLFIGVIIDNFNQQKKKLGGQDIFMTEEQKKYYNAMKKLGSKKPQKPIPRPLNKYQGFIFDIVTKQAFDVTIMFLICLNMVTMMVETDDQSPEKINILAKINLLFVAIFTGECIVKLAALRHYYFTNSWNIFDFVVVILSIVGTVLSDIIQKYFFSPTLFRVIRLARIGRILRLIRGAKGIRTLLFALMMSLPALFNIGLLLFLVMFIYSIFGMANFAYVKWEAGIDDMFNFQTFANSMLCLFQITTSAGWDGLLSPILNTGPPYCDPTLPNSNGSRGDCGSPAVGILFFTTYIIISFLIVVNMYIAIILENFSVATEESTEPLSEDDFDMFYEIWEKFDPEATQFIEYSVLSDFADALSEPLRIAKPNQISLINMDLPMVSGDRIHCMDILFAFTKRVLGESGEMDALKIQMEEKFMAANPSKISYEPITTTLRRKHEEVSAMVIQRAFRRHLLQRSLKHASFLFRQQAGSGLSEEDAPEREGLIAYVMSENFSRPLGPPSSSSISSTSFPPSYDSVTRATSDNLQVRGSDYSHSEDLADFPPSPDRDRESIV

[2] = AUC in FVB mouse at 1 mg/kg, iv; assay type: ADME, organism-based; parameters: dose 1 mg/kg; details: in vivo
[3] = Drug uptake in FVB mouse brain at 10 mg/kg, po measured after 2 hrs; assay type: ADME, organism-based; details: read-out: Drug uptake
[4] = Oral bioavailability in FVB mouse at 10 mg/kg; assay type: ADME, organism-based; details: in vivo
[5] = biological target: T2, Sodium channel protein type 8 subunit alpha (Homo sapiens, UniProt Q9UQD0); assay: Inhibition of human Nav1.6 by whole cell voltage clamp analysis
Cytochrome P450 2C9 = Cytochrome P450 2C9 (Homo sapiens, UniProt P11712); assay: Inhibition of CYP2C9 (unknown origin); assay type: ADME
Cytochrome P450 2C9, sequence (P11712 whole entry): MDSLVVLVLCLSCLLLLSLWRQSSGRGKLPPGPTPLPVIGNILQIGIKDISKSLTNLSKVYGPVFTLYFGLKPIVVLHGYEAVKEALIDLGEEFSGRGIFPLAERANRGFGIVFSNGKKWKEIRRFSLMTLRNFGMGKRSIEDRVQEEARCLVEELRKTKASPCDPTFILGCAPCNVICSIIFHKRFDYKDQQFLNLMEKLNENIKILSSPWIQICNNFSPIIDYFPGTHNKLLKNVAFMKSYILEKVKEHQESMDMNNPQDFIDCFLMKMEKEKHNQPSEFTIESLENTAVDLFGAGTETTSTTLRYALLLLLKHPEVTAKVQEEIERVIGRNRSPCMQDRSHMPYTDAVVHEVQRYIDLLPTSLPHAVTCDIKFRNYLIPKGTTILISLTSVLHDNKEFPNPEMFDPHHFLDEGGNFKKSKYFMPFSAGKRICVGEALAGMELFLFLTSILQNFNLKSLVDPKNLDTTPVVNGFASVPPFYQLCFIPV

[6] = Plasma concentration in FVB mouse at 10 mg/kg, po measured after 2 hrs; assay type: ADME, organism-based
[7] = Anti-arrythmic activity in human iPSC-derived cardiomyocytes assessed as reduction in upstroke velocity dV/dt(Vmax) at 100 nM in presence of 15 to 30 nM ATX-II by current clamp analysis; assay type: functional; details: iPSC-CM
[8] = biological target: T1, Sodium channel protein type 5 subunit alpha; assay: Inhibition of human Nav1.5 expressed in HEK293 cells assessed as inhibition of peak channel current at holding potential of -95 mV; assay type: cell-based
[9] = biological target: T2, Sodium channel protein type 8 subunit alpha; assay: Inhibition of human Nav1.6 expressed in HEK293 cells by sodium influx assay; assay type: cell-based
[10] = biological target: Kv channel-interacting protein 2/Potassium voltage-gated channel subfamily D member 3 (Homo sapiens, UniProt Q9UK17+Q9NS61); assay: Inhibition of Kv4.3/KChIP2.2 (unknown origin) by voltage clamp method; assay type: protein-complex assay
[11] = biological target: T3, Sodium channel protein type 1 subunit alpha (Homo sapiens, UniProt P35498); assay: Inhibition of human Nav1.1 by V1/2 protocol based analysis
[12] = Cmax in FVB mouse at 10 mg/kg, po; assay type: ADME, organism-based; parameters: route oral, dose 10 mg/kg; details: in vivo
[13] = biological target: Voltage-dependent L-type calcium channel subunit alpha-1C (Homo sapiens, UniProt Q13936); assay: Inhibition of Cav1.2 (unknown origin) by voltage clamp assay
Cytochrome P450 3A4 = Cytochrome P450 3A4 (Homo sapiens, UniProt P08684); assay: Inhibition of CYP3A4 (unknown origin); assay type: ADME
[14] = Ratio of drug level in brain to plasma in FVB mouse at 10 mg/kg, po measured after 2 hrs; assay type: ADME, organism-based; details: read-out: BPR
[15] = Clearance in FVB mouse at 1 mg/kg, iv; assay type: ADME, organism-based; details: in vivo
[16] = biological target: T3, Sodium channel protein type 1 subunit alpha; assay: Inhibition of human Nav1.1 by whole cell voltage clamp analysis
[17] = Half life in FVB mouse at 10 mg/kg, po; assay type: ADME, organism-based; details: in vivo
[18] = biological target: T1, Sodium channel protein type 5 subunit alpha; assay: Displacement of [3H]BNZA from Nav1.5 (unknown origin)
[19] = biological target: T4, Sodium channel protein type 2 subunit alpha (Homo sapiens, UniProt Q99250); assay: Inhibition of human Nav1.2 by V1/2 protocol based analysis
T4 sequence (Q99250 whole entry): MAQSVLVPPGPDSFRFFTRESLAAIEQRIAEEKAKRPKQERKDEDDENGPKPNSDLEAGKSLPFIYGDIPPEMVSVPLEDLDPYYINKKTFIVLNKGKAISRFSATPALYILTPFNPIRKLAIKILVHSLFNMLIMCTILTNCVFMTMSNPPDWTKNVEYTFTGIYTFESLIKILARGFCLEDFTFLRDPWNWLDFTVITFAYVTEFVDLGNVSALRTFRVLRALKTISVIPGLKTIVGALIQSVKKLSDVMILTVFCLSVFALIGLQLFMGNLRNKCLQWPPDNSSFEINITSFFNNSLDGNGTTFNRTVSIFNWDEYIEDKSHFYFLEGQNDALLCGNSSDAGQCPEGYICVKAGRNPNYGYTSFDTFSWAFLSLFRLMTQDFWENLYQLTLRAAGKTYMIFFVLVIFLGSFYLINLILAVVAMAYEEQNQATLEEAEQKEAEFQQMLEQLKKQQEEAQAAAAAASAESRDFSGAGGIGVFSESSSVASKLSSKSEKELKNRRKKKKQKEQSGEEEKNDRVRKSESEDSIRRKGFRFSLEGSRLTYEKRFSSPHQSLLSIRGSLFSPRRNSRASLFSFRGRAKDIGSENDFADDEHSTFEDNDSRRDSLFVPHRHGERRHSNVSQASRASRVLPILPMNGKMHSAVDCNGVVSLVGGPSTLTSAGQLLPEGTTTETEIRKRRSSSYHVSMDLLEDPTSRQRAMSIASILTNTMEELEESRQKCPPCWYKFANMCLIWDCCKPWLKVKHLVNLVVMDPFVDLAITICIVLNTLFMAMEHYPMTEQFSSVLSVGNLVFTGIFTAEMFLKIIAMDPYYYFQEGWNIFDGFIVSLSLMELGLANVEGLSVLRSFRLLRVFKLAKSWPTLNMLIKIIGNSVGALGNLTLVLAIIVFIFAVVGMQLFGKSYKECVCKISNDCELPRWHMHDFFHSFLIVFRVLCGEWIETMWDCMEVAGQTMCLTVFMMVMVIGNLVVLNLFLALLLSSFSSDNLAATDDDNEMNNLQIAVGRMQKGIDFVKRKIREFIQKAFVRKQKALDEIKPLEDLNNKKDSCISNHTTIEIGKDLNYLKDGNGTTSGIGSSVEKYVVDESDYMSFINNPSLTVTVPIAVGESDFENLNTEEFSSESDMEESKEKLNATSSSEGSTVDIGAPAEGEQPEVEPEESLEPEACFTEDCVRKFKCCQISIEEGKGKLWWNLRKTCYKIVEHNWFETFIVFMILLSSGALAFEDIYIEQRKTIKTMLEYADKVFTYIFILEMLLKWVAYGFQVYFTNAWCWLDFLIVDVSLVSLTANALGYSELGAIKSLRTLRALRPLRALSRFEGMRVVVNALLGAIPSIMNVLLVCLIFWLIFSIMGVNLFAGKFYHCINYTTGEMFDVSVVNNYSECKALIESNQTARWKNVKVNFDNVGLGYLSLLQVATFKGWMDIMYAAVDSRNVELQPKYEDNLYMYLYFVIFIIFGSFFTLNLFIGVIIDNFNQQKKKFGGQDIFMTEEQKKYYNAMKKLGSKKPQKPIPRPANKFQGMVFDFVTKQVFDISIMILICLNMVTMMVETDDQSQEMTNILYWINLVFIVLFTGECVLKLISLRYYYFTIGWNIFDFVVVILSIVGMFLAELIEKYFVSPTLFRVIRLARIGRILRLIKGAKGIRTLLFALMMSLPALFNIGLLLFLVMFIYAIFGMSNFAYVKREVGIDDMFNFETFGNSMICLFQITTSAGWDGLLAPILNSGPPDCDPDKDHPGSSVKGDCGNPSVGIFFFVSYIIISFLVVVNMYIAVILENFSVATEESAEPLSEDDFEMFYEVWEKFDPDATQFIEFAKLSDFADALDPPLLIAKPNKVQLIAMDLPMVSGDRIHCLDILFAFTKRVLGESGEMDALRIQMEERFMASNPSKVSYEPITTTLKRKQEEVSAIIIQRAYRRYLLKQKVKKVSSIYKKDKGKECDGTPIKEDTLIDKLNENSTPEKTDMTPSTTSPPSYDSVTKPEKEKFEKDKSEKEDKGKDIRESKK

[20] = Volume of distribution at steady state in FVB mouse at 1 mg/kg, iv; assay type: ADME, organism-based; details: in vivo, read-out: Vdss
[21] = Half life in FVB mouse at 1 mg/kg, iv; assay type: ADME, organism-based; details: in vivo
Cytochrome P450 2D6 = Cytochrome P450 2D6 (Homo sapiens, UniProt P10635); assay: Inhibition of CYP2D6 (unknown origin); assay type: ADME
Cytochrome P450 2D6, sequence (P10635 whole entry): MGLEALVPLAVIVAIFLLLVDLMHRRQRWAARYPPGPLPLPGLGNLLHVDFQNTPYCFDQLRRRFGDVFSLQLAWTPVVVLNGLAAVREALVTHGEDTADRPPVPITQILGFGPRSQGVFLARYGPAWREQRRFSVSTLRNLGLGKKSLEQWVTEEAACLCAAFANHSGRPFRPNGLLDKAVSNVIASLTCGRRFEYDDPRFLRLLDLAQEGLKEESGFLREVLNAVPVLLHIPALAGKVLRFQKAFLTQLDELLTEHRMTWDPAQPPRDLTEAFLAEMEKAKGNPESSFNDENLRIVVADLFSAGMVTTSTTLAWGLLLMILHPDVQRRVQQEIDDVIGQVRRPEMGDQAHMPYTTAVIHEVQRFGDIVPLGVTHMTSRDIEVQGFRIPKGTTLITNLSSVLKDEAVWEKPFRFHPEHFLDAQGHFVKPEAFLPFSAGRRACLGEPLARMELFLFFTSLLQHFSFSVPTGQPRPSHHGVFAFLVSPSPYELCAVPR

[22] = biological target: Voltage-gated potassium channel, IKs; KCNQ1(Kv7.1)/KCNE1(MinK) (Homo sapiens, UniProt P51787+P15382); assay: Inhibition of KvLQT1/mink (unknown origin) by voltage clamp method; assay type: protein-complex assay
[23] = Anti-arrythmic activity in human iPSC-derived cardiomyocytes assessed as shortening of ATX-II induced APD90 prolongation at 100 nM in presence of 15 to 30 nM ATX-II by current clamp analysis; assay type: functional; details: iPSC-CM
[24] = biological target: Sodium channel protein type 9 subunit alpha (Homo sapiens, UniProt Q15858); assay: Inhibition of human Nav1.7 expressed in HEK293 cells by sodium flux analysis; assay type: cell-based
hERG (KCNH2) = hERG (KCNH2) (Homo sapiens, UniProt Q12809); assay: Inhibition of human ERG at 10 uM by voltage clamp method
[25] = biological target: T1, Sodium channel protein type 5 subunit alpha; assay: Inhibition of human Nav1.5 by V1/2 protocol based analysis
[26] = AUC in FVB mouse at 10 mg/kg, po; assay type: ADME, organism-based; parameters: dose 10 mg/kg; details: in vivo
[27] = biological target: T1, Sodium channel protein type 5 subunit alpha; assay: Inhibition of human Nav1.5 by automated voltage clamp electrophysiology
[28] = biological target: T4, Sodium channel protein type 2 subunit alpha; assay: Inhibition of human Nav1.2 by whole cell voltage clamp analysis
[29] = biological target: T4, Sodium channel protein type 2 subunit alpha; assay: Inhibition of human Nav1.2 expressed in HEK293 cells by sodium influx assay; assay type: cell-based
Nav1.5 (SCN5A) = Nav1.5 (SCN5A) (Homo sapiens, UniProt Q14524); assay: State dependent inhibition of human Nav1.5 expressed in HEK293 cells assessed as shift in compound IC50 at rested state at membrane potential of -120 mV relative to partially inactivated state at membrane potential of -95 mV; assay type: cell-based; details: HEK293 cells that express human Nav1.5, read-out: FC
[30] = biological target: T3, Sodium channel protein type 1 subunit alpha; assay: Inhibition of human Nav1.1 expressed in HEK293 cells by sodium influx assay; assay type: cell-based
[31] = biological target: T1, Sodium channel protein type 5 subunit alpha; assay: Inhibition of human Nav1.5 expressed in HEK293 cells by sodium influx assay; assay type: cell-based
[32] = biological target: T2, Sodium channel protein type 8 subunit alpha; assay: Inhibition of human Nav1.6 by V1/2 protocol based analysis

inhibition (INH) (Cytochrome P450 2C19): Not Active
inhibition (INH) (Cytochrome P450 1A2): Not Active
AUC [2]: 7.6 µM·h
concentration at 2 h [3]: 2.03 µM
bioavailability [4]: 39%
IC50 [5]: 230 nM
IC50 (Cytochrome P450 2C9): 2200 nM
concentration at 2 h [6]: 6.44 µM
IC50 [9]: 110 nM
inhibition (INH) [10]: Not Active
IC50 [11]: 90 nM
Cmax [12]: 3.6 µM
inhibition (INH) (Cytochrome P450 3A4): Not Active
Kp at 2 h [14]: 0.32
clearance [15]: 3.8 mL/min/kg
IC50 [16]: 620 nM
half-life [17]: 2.7 h
IC50 [19]: 12 nM
Vd [20]: 0.8 L/kg
half-life [21]: 2.6 h
inhibition (INH) (Cytochrome P450 2D6): Not Active
inhibition (INH) [22]: Not Active
IC50 [24]: 220 nM
AUC [26]: 30 µM·h
IC50 [28]: 270 nM
IC50 [29]: 270 nM
IC50 [30]: 560 nM
IC50 [32]: 110 nM
SMILES: O=S(=O)(Nc1cccc(F)n1)c1cc(F)c(O[C@H]2CCN(CC(F)(F)F)C[C@@H]2c2ccc(F)c(F)c2)c(F)c1 (stereo in doubt; (-)-6)
IC50 [1]: 15.8 nM
inhibition at 0.1 µM [7]: 23%
IC50 [8]: 17.7 nM
inhibition (INH) [13]: Not Active
Ki [18]: 370 nM
inhibition at 0.1 µM [23]: 84%
inhibition at 10 µM (hERG (KCNH2)): 5%
IC50 [25]: 110 nM
IC50 [27]: 39 nM
selectivity ratio (Nav1.5 (SCN5A)): 24
IC50 [31]: 44 nM
